Experimental data published in patent US12286443B2, “Bycyclic JAK inhibitors and uses thereof” (Insilico Medicine IP Limited, priority 2019, dated 2025).

Biological target: T1, JAK1 (Homo sapiens, UniProt P23458)
T1 construct: purchased Invitrogen PV4775
Assay: Inhibition of JAK1 kinase, LANCE Ultra TR-FRET assay
Assay type: biochemical
Conditions: 2 nM JAK1, 2x ATP 76 μM, 15 min pre-incubation, 90 min reaction, 23° C.
Method: (§1) Exemplary compounds were assayed to determine potency in inhibiting activity of JAK1-3 and TYK2 kinases by determining IC50 values.
(§2) The sources of test materials and equipment are as follows: JAK1 (Invitrogen, Cat. No PV4775), JAK2 (Invitrogen, Cat. No PV4210), JAK3 (Invitrogen, Cat. No PV4080), TYK2 (Invitrogen, Cat. No PR8440C), ATP (Sigma, Cat. No. A7699-1G), DMSO (Sigma, Cat. No. D2650), DTT (Sigma, Cat. No. 43815), 384 wells_compound plate (Greiner, Cat. No. 781280), 384 wells_assay plate (Perkin Elmer, Cat. No. 6007299), LANCE Ultra ULight™-JAK-1 peptide (Perkin Elmer, Cat. No. TRF0121), LANCET™ Eu-W1024 Anti-phosphotyrosine (PT66) (Perkin Elmer, Cat. No. AD0069), LANCET™ Detection Buffer(Perkin Elmer, Cat. No. CR97-100).
(§3) The concentrations of test compounds varied from 100 μM to 1.7 nM with 3-fold dilution, 11 points, in duplicates while the concentrations of the reference compound, Tofacitinib, varied from 1 μM to 0.017 nM with 3-fold dilution, 11 points, in duplicates.
(§4) The assay buffer contained 50 mM HEPES (pH 7.5), 0.01% Brij-35, 10 mM MgCl2, 1 mM EDTA, 2 mM DTT. Incubations were carried out at 23° C.
(§5) Prior to the assay, enzyme, peptide substrate and serially diluted test compounds were pre-incubated together in assay buffer (5 μL) for 15 minutes (peptide substrate concentration: 50 nM; JAK enzyme concentrations: 2 nM JAK1; […]; […] and 4 nM TYK2). And the assay was initiated by the addition of 5 μL assay buffer containing 2× final ATP concentration (these are the 2×ATP concentrations: 76 μM JAK1; 24 μM JAK2; 8 μM JAK3 and 30 μM TYK2). Following the 90-minute incubation, antibody conjugated with Eu is dissolved in detection buffer to add into wells and then incubated for 60 minutes. The 10 μL detection buffer contains EDTA to stop the enzymatic reaction. The plate is analyzed by Perkin Elmer Envision on TR-FRET mode. The high ratio of 665/615 represents no inhibition of kinase reaction while the low ratio of 665/615 represents complete inhibition of kinase reaction.
(§6) Curves are fit by XLFIT5 as inhibition rate % vs. log [compound concentration] using 4 parameters logistic model 205.
(§7) In the table, “A” indicates an IC50 of less than 100 nM, “B” indicates an IC50 range from 100 nM to 500 nM; “C” indicates an IC50 range from 500 nM to 2 μM; and “D” indicates an IC50 greater than 2 μM. Also, “na” indicates data is not available.

T1 sequence (P23458 whole entry): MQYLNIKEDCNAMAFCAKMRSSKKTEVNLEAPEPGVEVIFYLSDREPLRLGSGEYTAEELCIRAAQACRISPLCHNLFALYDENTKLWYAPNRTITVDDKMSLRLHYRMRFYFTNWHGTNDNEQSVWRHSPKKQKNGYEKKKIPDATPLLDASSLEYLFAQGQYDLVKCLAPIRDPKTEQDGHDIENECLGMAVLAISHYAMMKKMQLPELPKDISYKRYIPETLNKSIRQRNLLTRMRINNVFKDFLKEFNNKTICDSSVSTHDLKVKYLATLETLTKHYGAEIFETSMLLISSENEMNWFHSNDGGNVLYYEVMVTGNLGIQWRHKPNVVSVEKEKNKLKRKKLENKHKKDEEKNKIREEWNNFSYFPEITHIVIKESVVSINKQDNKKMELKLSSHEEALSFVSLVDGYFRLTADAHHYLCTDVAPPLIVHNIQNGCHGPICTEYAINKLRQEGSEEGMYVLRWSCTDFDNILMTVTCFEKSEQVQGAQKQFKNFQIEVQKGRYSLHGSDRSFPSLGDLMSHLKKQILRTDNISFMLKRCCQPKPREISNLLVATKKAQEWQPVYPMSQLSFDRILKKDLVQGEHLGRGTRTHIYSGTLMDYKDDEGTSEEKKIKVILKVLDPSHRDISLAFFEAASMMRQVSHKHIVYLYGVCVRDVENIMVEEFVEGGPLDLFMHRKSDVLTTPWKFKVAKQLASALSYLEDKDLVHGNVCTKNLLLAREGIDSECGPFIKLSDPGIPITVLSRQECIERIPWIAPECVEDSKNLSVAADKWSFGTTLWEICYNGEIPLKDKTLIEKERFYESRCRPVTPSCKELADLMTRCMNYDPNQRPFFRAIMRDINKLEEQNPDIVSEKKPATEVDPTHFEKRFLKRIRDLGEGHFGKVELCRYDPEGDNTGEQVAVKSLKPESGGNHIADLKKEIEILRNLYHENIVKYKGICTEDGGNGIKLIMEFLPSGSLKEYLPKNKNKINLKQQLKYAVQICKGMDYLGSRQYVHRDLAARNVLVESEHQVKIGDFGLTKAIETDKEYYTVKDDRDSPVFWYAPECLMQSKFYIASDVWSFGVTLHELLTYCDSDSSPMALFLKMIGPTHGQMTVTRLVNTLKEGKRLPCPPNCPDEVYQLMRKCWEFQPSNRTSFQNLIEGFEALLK

Structure (SMILES)	IC50
O=C(NCCC(F)(F)F)C1=NOC2CN(c3ncnc4[nH]ccc34)CC12 (stereo not shown) [Compound 187]	100 to 500 nM
O=C(NCC(CO)C(F)(F)F)c1noc2c1CN(c1ncnc3[nH]ccc13)CC2 (stereo not shown) [Compound 151]	< 100 nM
O=C(NCCN1CCOCC1)c1noc2c1CN(c1ncnc3[nH]ccc13)CC2 [Compound 162]	> 2000 nM
O=C(NCCC1(F)COC1)c1noc2c1CN(c1ncnc3[nH]ccc13)CC2 [Compound 147]	100 to 500 nM
O=C(NCCC(F)(F)F)n1ccc2c1CN(c1ncnc3[nH]ccc13)CC2 [Compound 132]	100 to 500 nM

The next lines start with the values.

IC50	Structure (SMILES)
100 to 500 nM	O=C(NCCC1CCCC1)c1noc2c1CN(c1ncnc3[nH]ccc13)CC2 [Compound 158]
500 to 2000 nM	CN1CCCC1CCNC(=O)c1noc2c1CN(c1ncnc3[nH]ccc13)CC2 (stereo not shown) [Compound 155]

Biological target: T2, JAK2 (Homo sapiens, UniProt O60674)
T2 construct: purchased Invitrogen PV4210
T2 sequence (O60674 whole entry): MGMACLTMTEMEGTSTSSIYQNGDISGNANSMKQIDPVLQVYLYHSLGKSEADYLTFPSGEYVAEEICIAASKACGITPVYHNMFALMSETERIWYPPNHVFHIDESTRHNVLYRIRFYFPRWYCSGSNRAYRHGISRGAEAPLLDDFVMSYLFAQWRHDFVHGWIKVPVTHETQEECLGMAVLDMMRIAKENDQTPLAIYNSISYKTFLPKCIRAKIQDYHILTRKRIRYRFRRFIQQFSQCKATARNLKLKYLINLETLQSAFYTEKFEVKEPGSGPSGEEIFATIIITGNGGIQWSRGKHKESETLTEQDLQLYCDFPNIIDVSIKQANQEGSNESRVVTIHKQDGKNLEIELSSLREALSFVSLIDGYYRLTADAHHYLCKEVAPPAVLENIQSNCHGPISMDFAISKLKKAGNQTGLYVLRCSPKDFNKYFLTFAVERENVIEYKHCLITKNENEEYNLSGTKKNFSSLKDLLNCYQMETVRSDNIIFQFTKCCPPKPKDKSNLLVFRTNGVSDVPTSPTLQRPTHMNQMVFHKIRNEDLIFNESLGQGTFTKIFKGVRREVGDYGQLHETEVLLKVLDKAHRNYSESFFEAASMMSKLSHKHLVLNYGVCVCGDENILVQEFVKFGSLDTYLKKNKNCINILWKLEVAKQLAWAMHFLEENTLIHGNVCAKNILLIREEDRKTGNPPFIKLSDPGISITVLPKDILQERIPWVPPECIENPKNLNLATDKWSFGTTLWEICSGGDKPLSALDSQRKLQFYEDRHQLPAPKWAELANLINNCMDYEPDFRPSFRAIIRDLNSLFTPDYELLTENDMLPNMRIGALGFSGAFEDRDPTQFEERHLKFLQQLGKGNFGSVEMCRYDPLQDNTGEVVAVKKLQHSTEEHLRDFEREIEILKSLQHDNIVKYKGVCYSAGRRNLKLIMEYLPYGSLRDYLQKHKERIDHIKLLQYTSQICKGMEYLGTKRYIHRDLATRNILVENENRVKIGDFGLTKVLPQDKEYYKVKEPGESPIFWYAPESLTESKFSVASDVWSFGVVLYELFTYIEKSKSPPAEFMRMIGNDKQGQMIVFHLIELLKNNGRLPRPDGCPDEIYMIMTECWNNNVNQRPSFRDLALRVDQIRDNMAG
Assay: Inhibition of JAK2 kinase, LANCE Ultra TR-FRET assay
Assay type: biochemical
Conditions: 2x ATP 24 μM, 15 min pre-incubation, 90 min reaction, 23° C.
Method: as §1, §2, §3, §4, §5, §6, §7

Structure (SMILES)	IC50
O=C(NCCC(F)(F)F)C1=NOC2CN(c3ncnc4[nH]ccc34)CC12 (stereo not shown) [Compound 187]	500 to 2000 nM
O=C(NCC(CO)C(F)(F)F)c1noc2c1CN(c1ncnc3[nH]ccc13)CC2 (stereo not shown) [Compound 151]	< 100 nM
O=C(NCCN1CCOCC1)c1noc2c1CN(c1ncnc3[nH]ccc13)CC2 [Compound 162]	> 2000 nM
O=C(NCCC1(F)COC1)c1noc2c1CN(c1ncnc3[nH]ccc13)CC2 [Compound 147]	100 to 500 nM
O=C(NCCC(F)(F)F)n1ccc2c1CN(c1ncnc3[nH]ccc13)CC2 [Compound 132]	500 to 2000 nM

The next lines start with the values.

IC50	Structure (SMILES)
100 to 500 nM	O=C(NCCC1CCCC1)c1noc2c1CN(c1ncnc3[nH]ccc13)CC2 [Compound 158]
500 to 2000 nM	CN1CCCC1CCNC(=O)c1noc2c1CN(c1ncnc3[nH]ccc13)CC2 (stereo not shown) [Compound 155]

Biological target: T3, TYK2 (Homo sapiens, UniProt P29597)
T3 construct: purchased Invitrogen PR8440C
T3 sequence (P29597 whole entry): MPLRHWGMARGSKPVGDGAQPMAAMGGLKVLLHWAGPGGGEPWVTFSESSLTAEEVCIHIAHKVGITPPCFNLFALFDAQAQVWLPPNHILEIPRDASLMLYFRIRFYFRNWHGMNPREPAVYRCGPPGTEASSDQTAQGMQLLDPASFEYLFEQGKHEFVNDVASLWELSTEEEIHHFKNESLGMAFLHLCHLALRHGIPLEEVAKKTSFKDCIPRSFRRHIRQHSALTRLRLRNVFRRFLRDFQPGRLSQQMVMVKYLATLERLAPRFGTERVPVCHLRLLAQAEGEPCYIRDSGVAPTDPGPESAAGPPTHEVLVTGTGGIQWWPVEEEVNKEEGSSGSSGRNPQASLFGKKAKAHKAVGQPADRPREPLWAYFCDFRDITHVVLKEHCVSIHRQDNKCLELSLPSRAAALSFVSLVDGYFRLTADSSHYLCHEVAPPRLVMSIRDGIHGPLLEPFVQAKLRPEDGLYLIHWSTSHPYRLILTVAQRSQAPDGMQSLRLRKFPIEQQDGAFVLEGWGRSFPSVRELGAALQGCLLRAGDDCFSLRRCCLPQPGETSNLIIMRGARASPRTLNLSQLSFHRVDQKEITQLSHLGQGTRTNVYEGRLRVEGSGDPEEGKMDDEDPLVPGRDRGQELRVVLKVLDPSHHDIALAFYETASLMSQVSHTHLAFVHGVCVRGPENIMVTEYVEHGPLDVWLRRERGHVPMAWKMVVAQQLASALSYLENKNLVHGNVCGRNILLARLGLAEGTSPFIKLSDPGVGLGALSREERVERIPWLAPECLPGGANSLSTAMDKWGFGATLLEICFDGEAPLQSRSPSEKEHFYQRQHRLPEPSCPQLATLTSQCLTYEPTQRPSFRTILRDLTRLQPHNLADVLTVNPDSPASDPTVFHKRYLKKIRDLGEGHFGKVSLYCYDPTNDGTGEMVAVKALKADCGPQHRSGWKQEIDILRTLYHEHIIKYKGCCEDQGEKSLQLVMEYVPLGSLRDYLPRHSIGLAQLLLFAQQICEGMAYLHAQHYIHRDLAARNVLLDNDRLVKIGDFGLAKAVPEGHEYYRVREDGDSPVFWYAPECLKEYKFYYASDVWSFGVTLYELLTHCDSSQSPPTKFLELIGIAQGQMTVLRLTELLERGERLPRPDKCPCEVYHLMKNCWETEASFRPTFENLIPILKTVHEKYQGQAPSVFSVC
Assay: Inhibition of TYK2 kinase, LANCE Ultra TR-FRET assay
Assay type: biochemical
Conditions: 4 nM TYK2, 2x ATP 30 μM, 15 min pre-incubation, 90 min reaction, 23° C., read-out: tyk IC50
Method: as §1, §2, §3, §4, §5, §6, §7

Structure (SMILES)	IC50
O=C(NCCC(F)(F)F)C1=NOC2CN(c3ncnc4[nH]ccc34)CC12 (stereo not shown) [Compound 187]	> 2000 nM
O=C(NCC(CO)C(F)(F)F)c1noc2c1CN(c1ncnc3[nH]ccc13)CC2 (stereo not shown) [Compound 151]	500 to 2000 nM
O=C(NCCN1CCOCC1)c1noc2c1CN(c1ncnc3[nH]ccc13)CC2 [Compound 162]	> 2000 nM
O=C(NCCC1(F)COC1)c1noc2c1CN(c1ncnc3[nH]ccc13)CC2 [Compound 147]	> 2000 nM
O=C(NCCC(F)(F)F)n1ccc2c1CN(c1ncnc3[nH]ccc13)CC2 [Compound 132]	> 2000 nM

Second part, the compound after the results:

IC50	Structure (SMILES)
> 2000 nM	O=C(NCCC1CCCC1)c1noc2c1CN(c1ncnc3[nH]ccc13)CC2 [Compound 158]
> 2000 nM	CN1CCCC1CCNC(=O)c1noc2c1CN(c1ncnc3[nH]ccc13)CC2 (stereo not shown) [Compound 155]

Biological target: T4, JAK3 (Homo sapiens, UniProt P52333)
T4 construct: purchased Invitrogen PV4080
T4 sequence (P52333 1-1124): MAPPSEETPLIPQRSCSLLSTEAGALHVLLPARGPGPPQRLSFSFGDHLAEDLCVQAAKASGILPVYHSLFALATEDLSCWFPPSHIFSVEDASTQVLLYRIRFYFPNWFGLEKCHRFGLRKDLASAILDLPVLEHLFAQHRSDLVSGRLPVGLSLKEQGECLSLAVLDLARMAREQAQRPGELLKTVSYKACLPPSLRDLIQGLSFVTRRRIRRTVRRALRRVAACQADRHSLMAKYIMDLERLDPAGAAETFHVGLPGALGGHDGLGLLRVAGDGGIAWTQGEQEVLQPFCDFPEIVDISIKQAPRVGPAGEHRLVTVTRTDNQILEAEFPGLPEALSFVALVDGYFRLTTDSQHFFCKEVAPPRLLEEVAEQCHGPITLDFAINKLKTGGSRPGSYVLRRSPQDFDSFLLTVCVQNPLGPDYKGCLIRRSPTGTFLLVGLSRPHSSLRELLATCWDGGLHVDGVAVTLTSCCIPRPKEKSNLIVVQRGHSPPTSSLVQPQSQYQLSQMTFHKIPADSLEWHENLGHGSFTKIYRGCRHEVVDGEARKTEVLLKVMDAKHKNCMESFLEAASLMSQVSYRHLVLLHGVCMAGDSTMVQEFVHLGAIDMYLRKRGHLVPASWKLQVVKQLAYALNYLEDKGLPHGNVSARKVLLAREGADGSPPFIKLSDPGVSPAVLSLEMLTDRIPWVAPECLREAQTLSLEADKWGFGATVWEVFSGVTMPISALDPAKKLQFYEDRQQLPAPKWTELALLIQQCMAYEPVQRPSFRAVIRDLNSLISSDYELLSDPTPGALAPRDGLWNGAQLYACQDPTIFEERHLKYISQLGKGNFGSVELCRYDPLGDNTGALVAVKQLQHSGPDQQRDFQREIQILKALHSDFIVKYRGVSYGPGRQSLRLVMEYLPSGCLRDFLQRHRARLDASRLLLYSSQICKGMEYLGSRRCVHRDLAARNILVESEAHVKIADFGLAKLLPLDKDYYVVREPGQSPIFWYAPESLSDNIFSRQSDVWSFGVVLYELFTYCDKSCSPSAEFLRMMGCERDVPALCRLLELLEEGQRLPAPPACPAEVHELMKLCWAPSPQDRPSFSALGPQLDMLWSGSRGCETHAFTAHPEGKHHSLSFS
Assay: Inhibition of JAK3 kinase, LANCE Ultra TR-FRET assay
Assay type: biochemical
Conditions: 2x ATP 8 μM, 15 min pre-incubation, 90 min reaction, 23° C.
Method: as §1, §2, §3, §4, §5, §6, §7

Structure (SMILES)	IC50
O=C(NCCC(F)(F)F)C1=NOC2CN(c3ncnc4[nH]ccc34)CC12 (stereo not shown) [Compound 187]	100 to 500 nM
O=C(NCC(CO)C(F)(F)F)c1noc2c1CN(c1ncnc3[nH]ccc13)CC2 (stereo not shown) [Compound 151]	< 100 nM
O=C(NCCN1CCOCC1)c1noc2c1CN(c1ncnc3[nH]ccc13)CC2 [Compound 162]	500 to 2000 nM
O=C(NCCC1(F)COC1)c1noc2c1CN(c1ncnc3[nH]ccc13)CC2 [Compound 147]	100 to 500 nM
O=C(NCCC(F)(F)F)n1ccc2c1CN(c1ncnc3[nH]ccc13)CC2 [Compound 132]	500 to 2000 nM

Other lines, results leading:

IC50	Structure (SMILES)
< 100 nM	O=C(NCCC1CCCC1)c1noc2c1CN(c1ncnc3[nH]ccc13)CC2 [Compound 158]
500 to 2000 nM	CN1CCCC1CCNC(=O)c1noc2c1CN(c1ncnc3[nH]ccc13)CC2 (stereo not shown) [Compound 155]
